Tested on: not given
Assay: not given
Details: not given

melting point [°C] | Compound
191 | COC(=O)c1nc(-c2ccc(C)nc2)c(F)c(N)c1Cl [Compound 90]

Tested on: Key Grass and Sedge Weeds as well as Grass Crops
Assay: Post-Emergent Test II (Table 6)
Format: in vivo
Details: post-emergence, 336 h, CYPSS, 70 g ai/ha, 14 days after application, read-out: Visual Growth Reduction (%) 14 Days After Application CYPSS
Procedure, shortened: (§1)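 Growth stage at treatment: first or second true leaf. Application: compound in acetone/DMSO diluted into an adjuvant-containing aqueous mix, sprayed at 187 L/ha at several rates. Assessment: visual 0-100% injury at 14 days against untreated plants.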

Compound | pest or weed control at 70 g/ha [%]
COC(=O)c1nc(-c2ccc(C)nc2)c(F)c(N)c1Cl [Compound 90] | 0 to 29

Same assay, conditions: post-emergence, 336 h, CYPSS, 140 g ai/ha, 14 days after application, read-out: Visual Growth Reduction (%) 14 Days After Application CYPSS

Compound | pest or weed control at 140 g/ha [%]
COC(=O)c1nc(-c2ccc(C)nc2)c(F)c(N)c1Cl [Compound 90] | 0 to 29

Same assay, conditions: post-emergence, 336 h, DIGSA: crabgrass (Digitaria sanguinalis), 70 g ai/ha, 14 days after application, read-out: Visual Growth Reduction (%) 14 Days After Application DIGSA

Compound | pest or weed control at 70 g/ha [%]
COC(=O)c1nc(-c2ccc(C)nc2)c(F)c(N)c1Cl [Compound 90] | 0 to 29

Same assay, conditions: post-emergence, 336 h, DIGSA: crabgrass (Digitaria sanguinalis), 140 g ai/ha, 14 days after application, read-out: Visual Growth Reduction (%) 14 Days After Application DIGSA

Compound | pest or weed control at 140 g/ha [%]
COC(=O)c1nc(-c2ccc(C)nc2)c(F)c(N)c1Cl [Compound 90] | 45 to 59

Same assay, conditions: post-emergence, 336 h, ECHSS, 70 g ai/ha, 14 days after application, read-out: Visual Growth Reduction (%) 14 Days After Application ECHSS

Compound | pest or weed control at 70 g/ha [%]
COC(=O)c1nc(-c2ccc(C)nc2)c(F)c(N)c1Cl [Compound 90] | 75 to 84

Same assay, conditions: post-emergence, 336 h, ECHSS, 140 g ai/ha, 14 days after application, read-out: Visual Growth Reduction (%) 14 Days After Application ECHSS

Compound | pest or weed control at 140 g/ha [%]
COC(=O)c1nc(-c2ccc(C)nc2)c(F)c(N)c1Cl [Compound 90] | 75 to 84

Same assay, conditions: post-emergence, 336 h, ORYSS (crop), 70 g ai/ha, 14 days after application, read-out: Visual Growth Reduction (%) 14 Days After Application ORYSS

Compound | pest or weed control at 70 g/ha [%]
COC(=O)c1nc(-c2ccc(C)nc2)c(F)c(N)c1Cl [Compound 90] | 0 to 29

Same assay, conditions: post-emergence, 336 h, ORYSS (crop), 140 g ai/ha, 14 days after application, read-out: Visual Growth Reduction (%) 14 Days After Application ORYSS

Compound | pest or weed control at 140 g/ha [%]
COC(=O)c1nc(-c2ccc(C)nc2)c(F)c(N)c1Cl [Compound 90] | 0 to 29

Same assay, conditions: post-emergence, 336 h, SETFA: giant foxtail (Setaria faberi), 70 g ai/ha, 14 days after application, read-out: Visual Growth Reduction (%) 14 Days After Application SETFA

Compound | pest or weed control at 70 g/ha [%]
COC(=O)c1nc(-c2ccc(C)nc2)c(F)c(N)c1Cl [Compound 90] | 45 to 59

Same assay, conditions: post-emergence, 336 h, SETFA: giant foxtail (Setaria faberi), 140 g ai/ha, 14 days after application, read-out: Visual Growth Reduction (%) 14 Days After Application SETFA

Compound | pest or weed control at 140 g/ha [%]
COC(=O)c1nc(-c2ccc(C)nc2)c(F)c(N)c1Cl [Compound 90] | 60 to 74

Same assay, conditions: post-emergence, 336 h, SORVU: grain sorghum (Sorghum vulgare), 70 g ai/ha, 14 days after application, read-out: Visual Growth Reduction (%) 14 Days After Application SORVU

Compound | pest or weed control at 70 g/ha [%]
COC(=O)c1nc(-c2ccc(C)nc2)c(F)c(N)c1Cl [Compound 90] | 45 to 59

Same assay, conditions: post-emergence, 336 h, SORVU: grain sorghum (Sorghum vulgare), 140 g ai/ha, 14 days after application, read-out: Visual Growth Reduction (%) 14 Days After Application SORVU

Compound | pest or weed control at 140 g/ha [%]
COC(=O)c1nc(-c2ccc(C)nc2)c(F)c(N)c1Cl [Compound 90] | 45 to 59

Same assay, conditions: post-emergence, 336 h, TRZSS (crop), 70 g ai/ha, 14 days after application, read-out: Visual Growth Reduction (%) 14 Days After Application TRZSS

Compound | pest or weed control at 70 g/ha [%]
COC(=O)c1nc(-c2ccc(C)nc2)c(F)c(N)c1Cl [Compound 90] | 30 to 44

Same assay, conditions: post-emergence, 336 h, TRZSS (crop), 140 g ai/ha, 14 days after application, read-out: Visual Growth Reduction (%) 14 Days After Application TRZSS

Compound | pest or weed control at 140 g/ha [%]
COC(=O)c1nc(-c2ccc(C)nc2)c(F)c(N)c1Cl [Compound 90] | 30 to 44

Same assay, conditions: post-emergence, 336 h, ZEAMX: maize, corn (Zea mays), 70 g ai/ha, 14 days after application, read-out: Visual Growth Reduction (%) 14 Days After Application ZEAMX

Compound | pest or weed control at 70 g/ha [%]
COC(=O)c1nc(-c2ccc(C)nc2)c(F)c(N)c1Cl [Compound 90] | 95 to 100

Same assay, conditions: post-emergence, 336 h, ZEAMX: maize, corn (Zea mays), 140 g ai/ha, 14 days after application, read-out: Visual Growth Reduction (%) 14 Days After Application ZEAMX

Compound | pest or weed control at 140 g/ha [%]
COC(=O)c1nc(-c2ccc(C)nc2)c(F)c(N)c1Cl [Compound 90] | 95 to 100

Tested on: Key Broadleaf Weed and Crop Species
Assay: Post-Emergent Test II (Table 5)
Format: in vivo
Details: Abutilon theophrasti, post-emergence, 336 h, ABUTH: velvetleaf (Abutilon theophrasti), application rate 70 (kg ai/ha; footnote: g ai/ha), read-out: Visual Growth Reduction (%) 14 Days After Application ABUTH
Procedure, shortened: as §1

Compound | pest or weed control at 70 g/ha [%]
COC(=O)c1nc(-c2ccc(C)nc2)c(F)c(N)c1Cl [Compound 90] | 85 to 94

Same assay, conditions: Abutilon theophrasti, post-emergence, 336 h, ABUTH: velvetleaf (Abutilon theophrasti), application rate 140 (kg ai/ha; footnote: g ai/ha), read-out: Visual Growth Reduction (%) 14 Days After Application ABUTH

Compound | pest or weed control at 140 g/ha [%]
COC(=O)c1nc(-c2ccc(C)nc2)c(F)c(N)c1Cl [Compound 90] | 95 to 100

Same assay, conditions: Amaranthus retroflexus, post-emergence, 336 h, AMARE: redroot pigweed (Amaranthus retroflexus), application rate 70 (kg ai/ha; footnote: g ai/ha), read-out: Visual Growth Reduction (%) 14 Days After Application AMARE

Compound | pest or weed control at 70 g/ha [%]
COC(=O)c1nc(-c2ccc(C)nc2)c(F)c(N)c1Cl [Compound 90] | 95 to 100

Same assay, conditions: Amaranthus retroflexus, post-emergence, 336 h, AMARE: redroot pigweed (Amaranthus retroflexus), application rate 140 (kg ai/ha; footnote: g ai/ha), read-out: Visual Growth Reduction (%) 14 Days After Application AMARE

Compound | pest or weed control at 140 g/ha [%]
COC(=O)c1nc(-c2ccc(C)nc2)c(F)c(N)c1Cl [Compound 90] | 95 to 100

Same assay, conditions: Brassica napus, post-emergence, 336 h, BRSSS: oilseed rape, canola (Brassica napus), application rate 70 (kg ai/ha; footnote: g ai/ha), read-out: Visual Growth Reduction (%) 14 Days After Application BRSSS

Compound | pest or weed control at 70 g/ha [%]
COC(=O)c1nc(-c2ccc(C)nc2)c(F)c(N)c1Cl [Compound 90] | 60 to 74

Same assay, conditions: Brassica napus, post-emergence, 336 h, BRSSS: oilseed rape, canola (Brassica napus), application rate 140 (kg ai/ha; footnote: g ai/ha), read-out: Visual Growth Reduction (%) 14 Days After Application BRSSS

Compound | pest or weed control at 140 g/ha [%]
COC(=O)c1nc(-c2ccc(C)nc2)c(F)c(N)c1Cl [Compound 90] | 75 to 84

Same assay, conditions: Chenopodium album, post-emergence, 336 h, CHEAL: lambsquarters (Chenopodium album), application rate 70 (kg ai/ha; footnote: g ai/ha), read-out: Visual Growth Reduction (%) 14 Days After Application CHEAL

Compound | pest or weed control at 70 g/ha [%]
COC(=O)c1nc(-c2ccc(C)nc2)c(F)c(N)c1Cl [Compound 90] | 95 to 100

Same assay, conditions: Chenopodium album, post-emergence, 336 h, CHEAL: lambsquarters (Chenopodium album), application rate 140 (kg ai/ha; footnote: g ai/ha), read-out: Visual Growth Reduction (%) 14 Days After Application CHEAL

Compound | pest or weed control at 140 g/ha [%]
COC(=O)c1nc(-c2ccc(C)nc2)c(F)c(N)c1Cl [Compound 90] | 95 to 100

Same assay, conditions: Euphorbia heterophylla, post-emergence, 336 h, EPHHL: wild poinsettia (Euphorbia heterophylla), application rate 70 (kg ai/ha; footnote: g ai/ha), read-out: Visual Growth Reduction (%) 14 Days After Application EPHHL

Compound | pest or weed control at 70 g/ha [%]
COC(=O)c1nc(-c2ccc(C)nc2)c(F)c(N)c1Cl [Compound 90] | 85 to 94

Same assay, conditions: Euphorbia heterophylla, post-emergence, 336 h, EPHHL: wild poinsettia (Euphorbia heterophylla), application rate 140 (kg ai/ha; footnote: g ai/ha), read-out: Visual Growth Reduction (%) 14 Days After Application EPHHL

Compound | pest or weed control at 140 g/ha [%]
COC(=O)c1nc(-c2ccc(C)nc2)c(F)c(N)c1Cl [Compound 90] | 95 to 100

Same assay, conditions: Helianthus annuus, post-emergence, 336 h, HELAN: sunflower (Helianthus annuus), application rate 70 (kg ai/ha; footnote: g ai/ha), read-out: Visual Growth Reduction (%) 14 Days After Application HELAN

Compound | pest or weed control at 70 g/ha [%]
COC(=O)c1nc(-c2ccc(C)nc2)c(F)c(N)c1Cl [Compound 90] | 95 to 100

Same assay, conditions: Helianthus annuus, post-emergence, 336 h, HELAN: sunflower (Helianthus annuus), application rate 140 (kg ai/ha; footnote: g ai/ha), read-out: Visual Growth Reduction (%) 14 Days After Application HELAN

Compound | pest or weed control at 140 g/ha [%]
COC(=O)c1nc(-c2ccc(C)nc2)c(F)c(N)c1Cl [Compound 90] | 95 to 100

Same assay, conditions: Viola tricolor, post-emergence, 336 h, VIOTR: wild pansy (Viola tricolor), application rate 70 (kg ai/ha; footnote: g ai/ha), read-out: Visual Growth Reduction (%) 14 Days After Application VIOTR

Compound | pest or weed control at 70 g/ha [%]
COC(=O)c1nc(-c2ccc(C)nc2)c(F)c(N)c1Cl [Compound 90] | 0 to 29

Same assay, conditions: Viola tricolor, post-emergence, 336 h, VIOTR: wild pansy (Viola tricolor), application rate 140 (kg ai/ha; footnote: g ai/ha), read-out: Visual Growth Reduction (%) 14 Days After Application VIOTR

Compound | pest or weed control at 140 g/ha [%]
COC(=O)c1nc(-c2ccc(C)nc2)c(F)c(N)c1Cl [Compound 90] | 45 to 59

— patent US10765114B2, “4-amino-6-(pyridyl and 2-substitutedphenyl)-picolinates and 6-amino-2-(pyridyl and 2-substitutedphenyl)-pyrimidine-4-carboxylates and their use as herbicides” (Dow AgroSciences LLC, priority 2013, dated 2020)
